Data taken from paper PMC3435281 (PLoS ONE, 2012).

Tests used:
[1] = test system: C57BL/6J splenocytes; assay: CYP1A1, CYP1B1 and IDO mRNA in C57BL/6J splenocytes; type: cell-based, mouse; conditions: 4 hours
Source text: An important role for the AHR in the immune system, and specifically T-cell differentiation, has been recognized and continues to be characterized in the literature, [7]. Some ligands of the AHR have the ability to enhance Treg differentiation from naïve T-cells (TCDD, kynurenine), while others direct differentiation towards Th17 effector cells (FICZ). […] IDO has long been known to play a role in Treg generation, and may be central to the mechanism of Dendritic Cell (DC)-directed Treg generation. […] As described in the Methods, naïve T-cells were sorted using magnetic bead separation, and placed in culture for 5 days with allogeneic pDCs separated from BALB/C mice. […] After 5 days, cells were collected and mRNA harvested for qPCR analysis of IDO and FoxP3. […] Naïve T cells were placed in culture with IL-6 and TGF-β, and harvested after 3 days of culture.
A. Spleens were harvested from mice and processed in the standard fashion. […] Same assay as A, but mRNA for CYP1B1 and IDO were measured. C.

[2] = known value; cited from earlier work
[3] = target: T1, rat AHR^b (5L) (Rattus norvegicus, UniProt P41738); assay: EROD activity in rat hepatoma 5L cells; type: cell-based; conditions: 5L versus AHR^d-15 cells, 40 hours
T1 construct: endogenous in cells; host or cells: rat hepatoma 5L cells
T1 sequence (P41738 10-853): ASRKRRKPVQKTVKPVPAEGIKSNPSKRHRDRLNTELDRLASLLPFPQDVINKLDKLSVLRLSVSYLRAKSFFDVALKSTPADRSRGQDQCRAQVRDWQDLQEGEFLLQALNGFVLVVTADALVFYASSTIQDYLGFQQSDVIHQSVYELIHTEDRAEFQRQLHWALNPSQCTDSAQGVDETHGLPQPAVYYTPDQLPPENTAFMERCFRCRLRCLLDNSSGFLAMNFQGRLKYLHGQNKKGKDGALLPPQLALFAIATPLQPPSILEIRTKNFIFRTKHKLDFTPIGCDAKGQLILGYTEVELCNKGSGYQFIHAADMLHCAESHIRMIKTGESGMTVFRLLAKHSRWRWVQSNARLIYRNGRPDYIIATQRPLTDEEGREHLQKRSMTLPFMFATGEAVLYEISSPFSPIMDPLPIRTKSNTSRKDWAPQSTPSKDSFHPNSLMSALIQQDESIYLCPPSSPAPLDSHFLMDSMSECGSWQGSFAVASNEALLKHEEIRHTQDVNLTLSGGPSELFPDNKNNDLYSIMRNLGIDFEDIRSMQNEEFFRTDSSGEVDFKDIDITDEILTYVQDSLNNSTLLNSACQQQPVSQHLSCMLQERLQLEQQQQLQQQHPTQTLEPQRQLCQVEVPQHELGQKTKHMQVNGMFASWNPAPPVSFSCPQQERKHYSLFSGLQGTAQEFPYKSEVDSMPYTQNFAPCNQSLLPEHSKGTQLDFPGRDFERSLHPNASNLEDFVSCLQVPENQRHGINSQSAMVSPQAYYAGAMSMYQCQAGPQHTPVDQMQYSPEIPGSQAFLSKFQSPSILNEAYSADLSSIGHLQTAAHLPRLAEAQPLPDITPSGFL
Method: We utilized the wild type rat hepatoma cell line, 5L, which harbors the high affinity AHR isoform, and our newly created AHR^d-15 cell line. […] Groups of control mice were given corn oil alone or BNF at the concentration of 120 mg/kg.
Figure 3 In Vitro dose response curves. A. Rat hepatoma cell lines bearing the murine AHR^d (AHR^d-15) or the rat AHR^b (5L) were incubated with increasing doses of TCDD in 96-well plates. After 40 hours, EROD activity was performed from whole cell lysate. (n = 3). […] (n = 3). C. Same assay as in A, with increasing doses of BNF. (n = 2). […] Following 48 hours, hepatic microsomal proteins were isolated and used for the assessment of EROD activity. Animals were treated in groups of 4. Error bars: S.D.
High-throughput analysis of EROD activity was assayed by adapting a protocol that was described elsewhere, [63]. Briefly, cells were seeded into 96-well plates at ∼ 60% density and treated with the test compounds for 36 hours. The cells were washed with PBS and lysed with 30 µL water and a cycle of freeze-thaw. To each well, 150 µL of 50 mM Hepes buffer containing 26.7 µM dicumarol and 13.3 µM ethoxyresorufin were added. The samples were incubated at 30°C for 20 minutes, and 50 µL of 0.5 mM β-NADPH were added to initiate the reaction. Fluorescence of the resorufin product was detected using the 544 nm excitation and 590 nm emission wavelength filter set.

[4] = test system: CYP1A1 (induction through AHR^d); assay: CYP1A1 qPCR in AHR^d splenocytes; conditions: AHR^d congenic on a C57BL/6J background, mouse
Method: As the above in vitro experiments were performed in cell lines, we next utilized AHR^b (C57BL/6J) and AHR^d congenic mice (on a C57BL/6J background). […] Normalized data was chosen to allow comparison of CYP1A1 upregulation to its maximum in AHR^b versus AHR^d mice.
Figure 4 Splenocytes from wild-type and AHR^d mice analyzed by qPCR for CYP1A1. […] After 4 hours they were analyzed by qPCR for CYP1A1 analysis. The curves are normalized from 0 to 100% response. […] Cos-1 cells were transfected with an AHR containing the same point mutation (valine for alanine) thought to be responsible for the low affinity of the AHR^d isoform compared to AHR^b, and compared to the wild-type AHR response. These cells also harbor a luciferase gene next to the DRE. C. Cos-1 cells were exposed to TCDD. […]
Spleen was harvested from mice at the time of euthanasia and single cell suspensions were made. […] The relative quantitation PCR for IDO1 (Mm00492586-m1) and GAPDH (4352339-E0806018) were performed in the Applied Biosystems 7900HT Fast Real-Time PCR System (Applied Biosystems), and TaqMan Universal PCR Master Mix (Applied Biosystems) was used as a reaction reagent. The relative quantitation PCR for Foxp3, CYP1A1, CYP1B1, and GAPDH were processed by the Bio-Rad iCycler (Bio-Rad) and iQ SYBR Green Supermix ([…]) was used as the reaction reagent.

[5] = test system: AHR^d; parameters: method as in PMID 16242735; conditions: cited from earlier work

| Structure (SMILES) | induction of CYP1A1 and CYP1B1 mRNA ([1]; titrating doses) | induction of IDO mRNA ([1]; titrating doses) | CYP1A1 mRNA induction ([1]; wild-type cells, SU5416 500 nM) | plasma half-life [2] | shift of EROD dose-response to the left for the AHR^b isoform [3] | EC50 at 4 h [4] | binding affinity of AHR^d relative to AHR^b [5] |
| --- | --- | --- | --- | --- | --- | --- | --- |
| Cc1cc(C)c(C=C2C(=O)Nc3ccccc32)[nH]1 [SU5416, 3-(3,5-dimethyl-1H-pyrrol-2-ylmethylene)-1,3-dihydro-indole-2-one] | dramatically induced | induced significant amounts of IDO mRNA | induced CYP1A1 in wild-type | 30 min |  |  |  |
| Clc1cc2c(cc1Cl)Oc1cc(Cl)c(Cl)cc1O2 [TCDD, 2,3,7,8-tetrachlorodibenzo-p-dioxin] |  |  |  |  | 1.5 orders of magnitude | 1.89 nM | one-fifteenth to one-twentieth |
